From the supplement of paper PMC10307832

How the values were obtained:
Assay in all cases: relative viability (nuclei count vs DMSO), 5 days (fraction); higher = more cells survive
[1] = compound: COc1cc2nc(N3CCCN(C)CC3)nc(NC3CCN(Cc4ccccc4)CC3)c2cc1OC + N=C(N)NC(=N)NCCc1ccccc1 [Phenformin] (partner 250 µM)
Procedure, shortened: (§1)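 A single step with final 0.05% Triton X-100, 1% formaldehyde and 1 ug/ml Hoechst fixed the cells and stained nuclei 5 days after treatment. Lung cancer cell lines in 1536-well plates had been treated by pin tool the day after seeding with one drug alone or a fixed anchor-drug dose plus five library-drug doses (not always all listed) in √10 steps, and nuclei were counted on 4× images. Relative viability is the ratio of nuclei in treated wells to nuclei in vehicle wells, taken as the median of duplicate plates.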

AZD6482 + Pictilisib = compound: Cc1cc([C@@H](C)Nc2ccccc2C(=O)O)c2nc(N3CCOCC3)cc(=O)n2c1 [AZD6482] + CS(=O)(=O)N1CCN(Cc2cc3nc(-c4cccc5[nH]ncc45)nc(N4CCOCC4)c3s2)CC1 [Pictilisib] (partner 1 µM)
Procedure, shortened: as §1

AZD6482 + Vorinostat = compound: Cc1cc([C@@H](C)Nc2ccccc2C(=O)O)c2nc(N3CCOCC3)cc(=O)n2c1 [AZD6482] + O=C(CCCCCCC(=O)Nc1ccccc1)NO [Vorinostat] (partner 1 µM)
Procedure, shortened: as §1

AZD6482 + Trametinib = compound: Cc1cc([C@@H](C)Nc2ccccc2C(=O)O)c2nc(N3CCOCC3)cc(=O)n2c1 [AZD6482] + CC(=O)Nc1cccc(-n2c(=O)n(C3CC3)c(=O)c3c(Nc4ccc(I)cc4F)n(C)c(=O)c(C)c32)c1 [Trametinib] (partner 0.02 µM)
Procedure, shortened: as §1

Cell Line	relative viability ([1]; first compound 0.2 µM)	relative viability ([1]; first compound 0.6325 µM)	relative viability ([1]; first compound 2 µM)	relative viability ([1]; first compound 6.325 µM)	relative viability (AZD6482 + Pictilisib; first compound 0.08 µM)	relative viability (AZD6482 + Pictilisib; first compound 0.253 µM)	relative viability (AZD6482 + Pictilisib; first compound 0.8 µM)	relative viability (AZD6482 + Pictilisib; first compound 2.53 µM)	relative viability (AZD6482 + Pictilisib; first compound 8 µM)	relative viability (AZD6482 + Vorinostat; first compound 0.08 µM)	relative viability (AZD6482 + Vorinostat; first compound 0.253 µM)	relative viability (AZD6482 + Vorinostat; first compound 0.8 µM)	relative viability (AZD6482 + Vorinostat; first compound 2.53 µM)	relative viability (AZD6482 + Vorinostat; first compound 8 µM)	relative viability (AZD6482 + Trametinib; first compound 0.08 µM)	relative viability (AZD6482 + Trametinib; first compound 0.253 µM)	relative viability (AZD6482 + Trametinib; first compound 0.8 µM)	relative viability (AZD6482 + Trametinib; first compound 2.53 µM)	relative viability (AZD6482 + Trametinib; first compound 8 µM)
HCC-44	0.252	0.376	0.339	0.27	0.416	0.589	0.567	0.452	0.531	1.08	1.17	1.28	1.29	1.21	0.926	1.07	1.08	1.08	0.858
HCC-78	0.73	0.793	0.675	0.777	0.218	0.186	0.184	0.182	0.214	0.499	0.389	0.395	0.298	0.341	0.547	0.496	0.57	0.345	0.417
HCC-366	0.577	0.576	0.613	0.639	0.115	0.106	0.214	0.127	0.129	0.269	0.26	0.457	0.269	0.203	0.266	0.279	0.286	0.182	0.193
HCC-827	0.405	0.431	0.294	0.402	0.899	0.814	0.848	0.636	0.628	0.801	0.795	0.912	0.649	0.686	0.47	0.462	0.473	0.346	0.251
HOP-62	0.684	0.629	0.721	0.641	0.76	0.741	0.8	0.556	0.667	0.613	0.583	0.615	0.408	0.473	0.247	0.342	0.242	0.262	0.232
IA-LM					0.342	0.247	0.338		0.366	0.858	0.906	1.03		0.854					
LC-2-ad	0.528	0.568	0.644	0.521	0.36	0.426	0.504	0.236	0.567	0.703	0.702	0.854	0.605	0.625	0.864	0.886	0.942	0.798	0.614
LCLC-97TM1	0.432	0.401	0.503	0.465	0.246	0.175	0.245	0.176	0.146	0.616	0.703	0.565		0.583	0.2	0.202	0.171		0.154
LCLC-103H	0.36	0.344	0.367	0.36	0.6	0.627	0.636	0.439	0.591	0.661	0.748	0.784	0.565	0.51	0.661	0.607	0.649	0.547	0.496
LK-2	0.504	0.569	0.576	0.311	0.574		0.657	0.515	0.677	0.374	0.276	0.298	0.384	0.258	0.616	0.649	0.782	0.623	0.564
NCI-H522	0.649	0.68	0.613	0.745						0.818	0.896	0.805	0.829	0.759	0.872	0.711	0.841	0.549	0.566
NCI-H1299					0.615	0.684	0.742	0.394	0.678										
NCI-H1563	0.638	0.75	0.68	0.666	0.617	0.575	0.646	0.677	0.673										
NCI-H1648										0.545	0.422	0.552		0.402	0.483	0.434	0.491		0.365
NCI-H1703					0.245	0.239	0.233	0.204	0.191										
NCI-H1792		0.257	0.467	0.268	0.224	0.237	0.288	0.191	0.213						0.322	0.377	0.41	0.251	0.283
NCI-H2342	0.597	0.512	0.649	0.606						0.733	0.683	0.71	0.518	0.48	0.682	0.685	0.799	0.561	0.622
SW 900	0.522	0.682	0.645	0.47						0.38	0.357	0.528	0.328	0.402	0.851	0.591	0.703	0.43	0.568
